Results reported in patent US12201601B2, “Treatment for obesity” (Axsome Malta Ltd., priority 2013, dated 2025).

Assay: 6-week randomized, double blind, active and placebo-controlled study in adult subjects with major depressive disorder: body weight
Assay type: in vivo, Humans
Description: A 6-week randomized, double blind, parallel group, active and placebo-controlled study was carried out to assess the efficacy of R228060 in adult subjects with major depressive disorder (MDD). Body weight was monitored throughout the study.

[1] = Paroxetine (N = 117), baseline to endpoint
[2] = Paroxetine group, baseline to endpoint

SMILES: Fc1ccc([C@@H]2CCNC[C@H]2COc2ccc3c(c2)OCO3)cc1 [Paroxetine, reference compound]
- Subjects with weight Decrease ≥7% [1]: 0 n (%)
- Subjects with weight Increase <7% [1]: 54 (46.2) n (%)
- Subjects with weight Increase ≥7% [1]: 1 (0.9) n (%)
- Subjects with weight No change/decrease <7% [1]: 62 (53.0) n (%)
- Weight, End point, Mean (Paroxetine group, 6-week study): 83.2 kg
- Weight, End point, Median (Paroxetine group, 6-week study): 79.8 kg
- Mean weight gain [2]: 0.1 kg
- Weight, Change from Baseline, Mean [2]: 0.1 kg
- Weight, Change from Baseline, Median [2]: 0.0 kg
- Mean change from baseline to endpoint in BMI (paroxetine): 0
